From patent US10195156B2, “Compounds and compositions for intracellular delivery of agents” (ModernaTX, Inc., priority 2015, dated 2019)
Where two headings read alike, the source gives them in different places.

Legend:
[1] = Particle size and polydispersity index of nanoparticle compositions (Zetasizer Nano ZS); assay type: physicochemical; settings: Table 1
Procedure, shortened: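 In 1×PBS, the compositions were sized on a Zetasizer Nano ZS, which also reported their polydispersity index.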

[2] = Encapsulation efficiency of RNA (QUANT-IT RIBOGREEN RNA assay); assay type: physicochemical; settings: Table 1; rows without footnote mark
Procedure, shortened: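 Nanoparticle samples diluted to ~5 μg/mL RNA in TE buffer (pH 7.5), incubated with or without 2% Triton X-100 solution at 37 °C for 15 min, then RiboGreen added. Fluorescence read at ~480/520 nm, blank-subtracted; free RNA % = intact over Triton-disrupted signal.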

[3] = pKa of nanoparticle compositions; assay type: physicochemical; settings: Table 1; rows without footnote mark
hEPO mRNA expression [4] = assay: Expression of hEPO in rats after intravenous administration; assay type: in vivo; settings: hEPO expression in S.D. rats
Description: PBS (phosphate buffered saline) is used as control.
Formulations were prepared according to Table 5 and included mRNA encoding hEPO.
[…] After the 48 hour time point, livers and spleens were harvested and frozen.

LDLr−/− mice = assay: Expression in LDLr−/− mice (LDLr dependence); assay type: in vivo; settings: FIG. 9, FIG. 10
LDL-c = assay: LDL levels in LDLr−/− mice after mRNA encoding the LDL receptor; assay type: in vivo, LDLR knockout mice; settings: Mus musculus; Table 7b; LDLr−/− mice, 0.5 mpk, LDLr; read-out: LDL levels lipid/untreated LDLr−/− mice 0.5 mpk, LDLr
[5] = Lipid levels in liver and spleen 48 hours after administration; assay type: in vivo, rats; settings: for concentration at 48 h: Sprague-Dawley, rat, intravenous
Procedure, shortened: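 Rats (n=3 or 6) received lipid nanoparticle formulations intravenously at 0.2 mg/kg or 0.5 mg/kg. Liver and spleen were harvested and frozen 48 h after dosing, and the lipid amount remaining in each tissue was measured and expressed as a fraction of the dose.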

hEPO mRNA expression [6] = assay: hEPO levels in non-human primates; assay type: in vivo; settings: FIG. 10, up to ~50 h
Description: FIG. 10 is a graph showing hEPO levels in non-human primates up to ˜50 h after administration of a nanoparticle composition containing Compound 4, compared to a composition containing MC3.
The tolerability and efficacy of nanoparticle compositions to non-human primates is evaluated in Cynomolgus monkeys. Monkeys are administered an optimized nanoparticle composition including an mRNA encoding hEPO once weekly for four weeks. The levels of hEPO protein, mRNA, and cytokine profiles are measured using ELISA-based techniques before and 2, 6, 12, 24, 48, 72, and 120 hours after each administration.

[7] = system: GFP expression in liver cells; assay: Mouse liver immunohistochemistry (IHC) with GFP mRNA; assay type: in vivo; settings: FIG. 11, i.v., 0.5 mpk, 6 h (MC3, CD-1) or 8 h (Compound 4, LDLR knockout)
Description: FIG. 11 is a pair of images comparing the results of a mouse liver immunohistochemistry (IHC) using mRNA expressing green fluorescent protein (GFP) after administration of nanoparticle compositions containing Compound 4 and MC3.
FIG. 16 is a graph showing GFP levels in the livers of LDLR knockout mice at 30 min to 24 h after intravenous administration of an eGFP RNA in a lipid composition containing Compound 4. The liver GFP levels were determined via IHC. The square markers represent the number of GFP positive cells following administration of a dose of 0.1 mpk of the composition. The circular markers represent the number of GFP positive cells following administration of a dose of 0.5 mpk of the composition.

Luc expression = assay: ApoE dependence of luciferase expression (ApoE knockout vs. wild-type mice); assay type: in vivo; settings: 0.5 mpk, 6 h
Description: FIG. 17 is a pair of graphs showing the ApoE dependence of luciferase (“Luc”) expression following administration of a composition containing Luc mRNA and Compound 4 to mice at a dose 0.5 mpk. The expression following administration of a composition containing Luc mRNA and MC3 is presented for comparison. […] The % change in Luc expression in livers of ApoE knockout vs. wild-type mice (i.e., (WT mean expression-KO mean expression)/WT mean expression]*100%) was 91.9% for Compound 4 and 97.5% for MC3. […] The % change in expression in spleens of ApoE knockout vs. wild-type mice was 4.34% for Compound 4 and 72.2% for MC3. Numbers 1-4 refer to the following: 1: Composition containing Compound 4, administered to ApoE knockout mice; 2: Composition containing Compound 4, administered to wild-type mice; 3: Composition containing MC3, administered to ApoE knockout mice; 4: Composition containing MC3, administered to wild-type mice.

## CCCCCCCCCN(CCCCCCCCC)CCN(CCCCCCCCC)CC(=O)N1CCN(C(=O)CN(CCCCCCCCC)CCCCCCCCC)CC1 [Compound 4, 2-(Dinonylamino)-1-(4-(N-(2-(dinonylamino)ethyl)-N-nonylglycyl)piperazin-1-yl)ethan-1-one]
[1]; rows without footnote mark
  PDI: 0.120
[1]; rows without footnote mark (lipid:DOPE:cholesterol:PEG-DMG 40:20:38.5:1.5, Luc mRNA; MC3 standard formulation)
  Size (nm): 89.7 nm
[2]
  EE (%): 96.78%
[3]
  pKa: 7.12
hEPO mRNA expression [4]; 0.1 mpk
  AUC (0.1 mpk): 2.12E+06
hEPO mRNA expression [4]; 0.1 mpk, relative to MC3
  AUC/MC3 0.1 mpk: 1.3
hEPO mRNA expression [4]; 1 mpk
  AUC (1 mpk): 6.79E+07
hEPO mRNA expression [4]; 1 mpk, relative to MC3
  AUC/MC3 1 mpk: 0.58
LDLr−/− mice
  LDLr dependence of the lipid (in words): LDLr independent lipid
LDL-c
  response vs control in vivo at 0.5 mg/kg: 54%
[5]; liver, 48 hours after administration, read-out: Lipid in liver
  concentration at 48 h: 22000 ng/g
[5]; spleen, 48 hours after administration, read-out: Lipid in spleen
  concentration at 48 h: 5340 ng/g
[5]; liver, 48 hours after administration
  % remaining dose in liver: 38%
[5]; rat liver, 48 h
  % dose remainng Rat liver (48 h): 37.82%
[5]; spleen, 48 hours after administration
  % remaining dose in spleen: 0.61%
hEPO mRNA expression [6]
  expression of hEPO compared to MC3: 3 fold
[7]
  GFP protein expression in liver cell types (in words): less protein expression in Kupffer cells
Luc expression; FIG. 17 Graph A, liver
  % change in Luc expression in livers of ApoE knockout vs. wild-type mice: 91.9%
Luc expression; FIG. 17 Graph B, spleen
  % change in expression in spleens of ApoE knockout vs. wild-type mice: 4.34%
